For experiment [1], the target named is Prostaglandin G/H synthase 2 (Homo sapiens) (UniProt P35354). The experiment in a line: Inhibition of COX-2 (unknown origin) using arachidonic acid as substrate preincubated for 10 mins followed by substrate addition and measured after 5 mins by fluorescence based analysis.
Experiment [2] concerns the target Prostaglandin G/H synthase 1 (Homo sapiens) (UniProt P23219). The experiment in a line: Inhibition of COX-1 (unknown origin) using arachidonic acid as substrate preincubated for 10 mins followed by substrate addition and measured after 5 mins by fluorescence based analysis.

pIC50: −log10 of the molar value.

Sequence of Prostaglandin G/H synthase 2 (Homo sapiens) (P35354 whole entry, looked up): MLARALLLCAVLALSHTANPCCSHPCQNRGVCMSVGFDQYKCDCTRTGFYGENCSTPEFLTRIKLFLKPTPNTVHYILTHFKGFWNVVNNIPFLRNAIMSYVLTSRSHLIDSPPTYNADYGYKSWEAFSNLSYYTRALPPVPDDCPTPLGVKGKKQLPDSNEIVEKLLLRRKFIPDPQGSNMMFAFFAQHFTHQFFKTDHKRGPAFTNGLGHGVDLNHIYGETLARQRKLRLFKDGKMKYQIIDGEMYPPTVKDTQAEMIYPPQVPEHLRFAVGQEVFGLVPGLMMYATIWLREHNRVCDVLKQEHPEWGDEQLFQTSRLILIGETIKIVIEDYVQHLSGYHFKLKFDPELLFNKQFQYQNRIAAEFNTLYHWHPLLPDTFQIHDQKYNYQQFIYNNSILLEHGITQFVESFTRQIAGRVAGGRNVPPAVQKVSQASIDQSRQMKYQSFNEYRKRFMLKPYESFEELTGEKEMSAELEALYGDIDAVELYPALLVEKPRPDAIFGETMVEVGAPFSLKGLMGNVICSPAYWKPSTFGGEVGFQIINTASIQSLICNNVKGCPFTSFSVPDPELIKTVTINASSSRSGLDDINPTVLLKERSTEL

A word on the pIC50: it is the IC50 on a negative log10 scale, so that one unit is a factor of ten. A higher pIC50 goes with a low IC50. `CC(C)(C)c1nn(-c2ccccc2)c(O)c1Cc1ccc(C(=O)NO)cc1`: the pIC50 in experiment [1] was 6.84; in experiment [2], 5.89.

On to `Cc1nn(-c2cccc(Cl)c2)c(O)c1Cc1ccc(C(=O)NO)cc1`, for which the pIC50 in experiment [1] was 7.24; in experiment [2], 5.87.

For the compound `Cc1[nH]n(-c2ccccc2)c(=O)c1Cc1ccc(C(=O)NO)cc1`, the negative logarithm of the IC50 (pIC50) was 7.12 in experiment [1] and 5.24 in experiment [2].

For `CCc1nn(-c2ccccc2)c(O)c1Cc1ccc(C(=O)NO)cc1`, the figures for the pIC50 in experiment [1] and in experiment [2] were 6.87 and 6.49, respectively.

These data come from BindingDB's records for PubMed 38266553 (China Pharmaceutical University).
